Earlier results in patent publication US20070071819A1, “MULTIPLE UNIT MODIFIED RELEASE COMPOSITIONS OF CARBAMAZEPINE AND PROCESS FOR THEIR PREPARATION” (priority 2005, published 2007).

Details: below 4 μg/ml ineffective; greater than 12 μg/ml increased chances of side-effects

## NC(=O)N1c2ccccc2C=Cc2ccccc21 [carbamazepine, 5H-dibenz-[b,f]azepine-5-carboxamide]
  therapeutic blood serum concentration range: 4 to 12 µg/mL
